Assay results from ChEMBL document CHEMBL1909046, “DrugMatrix in vitro pharmacology data”.

target: T1, B2 bradykinin receptor (Homo sapiens, UniProt P30411); experiment: not given; assay type: cell membranes, Membrane; conditions: chem-1; also: in other assays of this panel Not Active means under 50% inhibition at 10 µM
T1 sequence (P30411 whole entry): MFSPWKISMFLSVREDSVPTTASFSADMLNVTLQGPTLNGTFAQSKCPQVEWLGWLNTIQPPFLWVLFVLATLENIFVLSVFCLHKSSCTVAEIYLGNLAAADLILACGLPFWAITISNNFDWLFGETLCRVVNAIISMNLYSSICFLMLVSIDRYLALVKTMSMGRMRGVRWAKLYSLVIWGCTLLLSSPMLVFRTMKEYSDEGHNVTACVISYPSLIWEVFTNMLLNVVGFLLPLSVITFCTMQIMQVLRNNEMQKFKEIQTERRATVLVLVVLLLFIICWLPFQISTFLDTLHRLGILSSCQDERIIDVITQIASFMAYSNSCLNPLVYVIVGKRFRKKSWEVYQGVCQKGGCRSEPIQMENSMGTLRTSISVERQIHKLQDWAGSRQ

Structure (SMILES) | IC50
NC(=O)NO [HYDROXYUREA] | Not Active
CC(C)Cc1ccc(C(C)C(=O)O)cc1 (stereo unspecified) [IBUPROFEN] | Not Active
COc1ccc2c(c1)c(CC(=O)O)c(C)n2C(=O)c1ccc(Cl)cc1 [INDOMETHACIN] | Not Active
CCc1c2c(nc3ccc(OC(=O)N4CCC(N5CCCCC5)CC4)cc13)-c1cc3c(c(=O)n1C2)COC(=O)[C@]3(O)CC [IRINOTECAN] | Not Active
CC(C(=O)O)c1cccc(C(=O)c2ccccc2)c1 (stereo unspecified) [KETOPROFEN] | Not Active
Nc1ccn([C@@H]2CS[C@H](CO)O2)c(=O)n1 [LAMIVUDINE] | Not Active

target: Platelet-activating factor receptor (Homo sapiens, UniProt P25105); experiment: not given; assay type: tissue-based; conditions: not given; also: in other assays of this panel Not Active means under 50% inhibition at 10 µM
Sequence (P25105 whole entry): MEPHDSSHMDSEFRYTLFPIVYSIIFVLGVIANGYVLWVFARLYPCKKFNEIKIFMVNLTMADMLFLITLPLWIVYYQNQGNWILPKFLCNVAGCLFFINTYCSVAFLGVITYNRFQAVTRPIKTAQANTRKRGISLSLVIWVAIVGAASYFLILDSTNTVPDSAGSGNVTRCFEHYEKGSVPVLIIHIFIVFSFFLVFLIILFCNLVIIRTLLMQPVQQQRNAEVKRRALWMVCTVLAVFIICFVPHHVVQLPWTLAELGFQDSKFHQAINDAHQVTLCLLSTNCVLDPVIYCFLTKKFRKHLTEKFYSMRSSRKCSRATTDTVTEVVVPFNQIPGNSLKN

Structure (SMILES) | IC50
NC(=O)NO [HYDROXYUREA] | Not Active
CC(C)Cc1ccc(C(C)C(=O)O)cc1 (stereo unspecified) [IBUPROFEN] | Not Active
COc1ccc2c(c1)c(CC(=O)O)c(C)n2C(=O)c1ccc(Cl)cc1 [INDOMETHACIN] | Not Active
CCc1c2c(nc3ccc(OC(=O)N4CCC(N5CCCCC5)CC4)cc13)-c1cc3c(c(=O)n1C2)COC(=O)[C@]3(O)CC [IRINOTECAN] | Not Active
CC(C(=O)O)c1cccc(C(=O)c2ccccc2)c1 (stereo unspecified) [KETOPROFEN] | Not Active
Nc1ccn([C@@H]2CS[C@H](CO)O2)c(=O)n1 [LAMIVUDINE] | Not Active

target: T2, C-C chemokine receptor type 4 (Homo sapiens, UniProt P51679); experiment: not given; assay type: cell membranes, Membrane; conditions: chem-1; also: in other assays of this panel Not Active means under 50% inhibition at 10 µM
T2 sequence (P51679 whole entry): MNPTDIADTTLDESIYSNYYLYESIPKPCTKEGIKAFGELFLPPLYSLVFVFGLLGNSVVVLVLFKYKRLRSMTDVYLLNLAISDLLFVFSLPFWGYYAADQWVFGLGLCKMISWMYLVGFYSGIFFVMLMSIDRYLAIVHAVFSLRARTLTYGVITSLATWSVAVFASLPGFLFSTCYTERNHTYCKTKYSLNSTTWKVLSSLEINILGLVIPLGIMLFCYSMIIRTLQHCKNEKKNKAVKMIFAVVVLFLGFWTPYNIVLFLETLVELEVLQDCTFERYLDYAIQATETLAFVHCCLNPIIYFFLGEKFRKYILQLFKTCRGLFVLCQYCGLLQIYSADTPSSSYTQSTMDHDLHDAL

Structure (SMILES) | IC50
NC(=O)NO [HYDROXYUREA] | Not Active
CC(C)Cc1ccc(C(C)C(=O)O)cc1 (stereo unspecified) [IBUPROFEN] | Not Active
COc1ccc2c(c1)c(CC(=O)O)c(C)n2C(=O)c1ccc(Cl)cc1 [INDOMETHACIN] | Not Active
CCc1c2c(nc3ccc(OC(=O)N4CCC(N5CCCCC5)CC4)cc13)-c1cc3c(c(=O)n1C2)COC(=O)[C@]3(O)CC [IRINOTECAN] | Not Active
CC(C(=O)O)c1cccc(C(=O)c2ccccc2)c1 (stereo unspecified) [KETOPROFEN] | Not Active
Nc1ccn([C@@H]2CS[C@H](CO)O2)c(=O)n1 [LAMIVUDINE] | Not Active

target: T3, Angiotensin-converting enzyme (Oryctolagus cuniculus, UniProt P12822); experiment: not given; assay type: tissue-based, Lung; conditions: not given;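 also: enzymatic inhibition of angiotensin-converting enzyme measured with FAPGG as the substrate; in other assays of this panel Not Active means under 50% inhibition at 10 µM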
T3 sequence (P12822 whole entry): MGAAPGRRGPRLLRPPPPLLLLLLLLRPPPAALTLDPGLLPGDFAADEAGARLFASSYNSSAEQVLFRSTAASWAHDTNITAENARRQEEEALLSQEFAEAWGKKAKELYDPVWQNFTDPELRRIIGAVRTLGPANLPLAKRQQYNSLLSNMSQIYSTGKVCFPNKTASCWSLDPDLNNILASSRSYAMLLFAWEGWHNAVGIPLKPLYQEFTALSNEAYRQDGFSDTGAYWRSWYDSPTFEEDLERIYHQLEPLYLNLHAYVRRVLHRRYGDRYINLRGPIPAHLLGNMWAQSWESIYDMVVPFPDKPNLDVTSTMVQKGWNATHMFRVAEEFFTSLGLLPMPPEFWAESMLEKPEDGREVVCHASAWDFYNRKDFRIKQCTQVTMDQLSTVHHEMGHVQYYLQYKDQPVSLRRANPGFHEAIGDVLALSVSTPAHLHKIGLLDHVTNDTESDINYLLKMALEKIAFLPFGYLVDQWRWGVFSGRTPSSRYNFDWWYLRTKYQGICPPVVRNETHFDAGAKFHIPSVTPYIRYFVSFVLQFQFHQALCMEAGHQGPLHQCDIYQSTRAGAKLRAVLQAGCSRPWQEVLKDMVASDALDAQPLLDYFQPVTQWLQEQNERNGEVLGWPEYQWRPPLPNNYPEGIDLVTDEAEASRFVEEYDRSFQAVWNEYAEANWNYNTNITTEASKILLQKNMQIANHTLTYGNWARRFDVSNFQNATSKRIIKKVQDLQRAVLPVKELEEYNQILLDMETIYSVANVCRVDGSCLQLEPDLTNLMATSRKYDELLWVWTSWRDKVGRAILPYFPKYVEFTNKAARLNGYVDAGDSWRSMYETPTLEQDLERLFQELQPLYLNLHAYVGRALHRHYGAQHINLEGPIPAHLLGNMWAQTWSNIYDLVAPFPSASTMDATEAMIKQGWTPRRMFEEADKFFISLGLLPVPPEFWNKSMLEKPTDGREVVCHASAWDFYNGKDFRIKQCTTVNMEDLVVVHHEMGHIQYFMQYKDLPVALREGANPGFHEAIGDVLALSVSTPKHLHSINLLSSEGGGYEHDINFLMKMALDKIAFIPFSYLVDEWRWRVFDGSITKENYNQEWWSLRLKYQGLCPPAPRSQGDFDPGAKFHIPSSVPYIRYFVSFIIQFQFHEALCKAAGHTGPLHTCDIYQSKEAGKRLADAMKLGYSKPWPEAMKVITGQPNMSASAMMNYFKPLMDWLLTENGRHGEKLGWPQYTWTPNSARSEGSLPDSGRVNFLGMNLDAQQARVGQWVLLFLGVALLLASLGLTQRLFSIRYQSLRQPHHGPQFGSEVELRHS

Structure (SMILES) | IC50
NC(=O)NO [HYDROXYUREA] | Not Active
CC(C)Cc1ccc(C(C)C(=O)O)cc1 (stereo unspecified) [IBUPROFEN] | Not Active
COc1ccc2c(c1)c(CC(=O)O)c(C)n2C(=O)c1ccc(Cl)cc1 [INDOMETHACIN] | Not Active
CCc1c2c(nc3ccc(OC(=O)N4CCC(N5CCCCC5)CC4)cc13)-c1cc3c(c(=O)n1C2)COC(=O)[C@]3(O)CC [IRINOTECAN] | Not Active
CC(C(=O)O)c1cccc(C(=O)c2ccccc2)c1 (stereo unspecified) [KETOPROFEN] | Not Active
Nc1ccn([C@@H]2CS[C@H](CO)O2)c(=O)n1 [LAMIVUDINE] | Not Active

target: Mitogen-activated protein kinase 3 (Homo sapiens, UniProt P27361); experiment: DRUGMATRIX: Protein Serine/Threonine Kinase, ERK1 enzyme inhibition (substrate: Myelin Basic Protein); set-up: species or system Escherichia coli; conditions: Not Active = under 50% inhibition at 10 µM
Sequence (P27361 whole entry): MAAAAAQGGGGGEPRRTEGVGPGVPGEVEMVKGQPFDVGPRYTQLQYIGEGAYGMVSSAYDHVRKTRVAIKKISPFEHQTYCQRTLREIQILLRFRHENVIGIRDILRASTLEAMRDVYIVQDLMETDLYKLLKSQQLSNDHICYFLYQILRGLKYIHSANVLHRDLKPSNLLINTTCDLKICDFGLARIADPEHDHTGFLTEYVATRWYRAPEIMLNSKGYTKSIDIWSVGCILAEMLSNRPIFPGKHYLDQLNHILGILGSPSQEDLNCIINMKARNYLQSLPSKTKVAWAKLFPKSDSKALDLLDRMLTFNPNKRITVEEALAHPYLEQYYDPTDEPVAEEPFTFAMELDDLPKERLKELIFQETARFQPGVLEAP

Structure (SMILES) | IC50
NC(=O)NO [HYDROXYUREA] | Not Active
CC(C)Cc1ccc(C(C)C(=O)O)cc1 (stereo unspecified) [IBUPROFEN] | Not Active
COc1ccc2c(c1)c(CC(=O)O)c(C)n2C(=O)c1ccc(Cl)cc1 [INDOMETHACIN] | Not Active
CCc1c2c(nc3ccc(OC(=O)N4CCC(N5CCCCC5)CC4)cc13)-c1cc3c(c(=O)n1C2)COC(=O)[C@]3(O)CC [IRINOTECAN] | Not Active
CC(C(=O)O)c1cccc(C(=O)c2ccccc2)c1 (stereo unspecified) [KETOPROFEN] | Not Active
Nc1ccn([C@@H]2CS[C@H](CO)O2)c(=O)n1 [LAMIVUDINE] | Not Active

test system: not listed separately; experiment: DRUGMATRIX: Leukotriene, BLT (LTB4) radioligand binding (ligand: [3H]LTB4); assay type: cell membranes, Membrane; conditions: u-937; Not Active = under 50% inhibition at 10 µM

Structure (SMILES) | IC50 | Ki
NC(=O)NO [HYDROXYUREA] | Not Active | Not Active
CC(C)Cc1ccc(C(C)C(=O)O)cc1 (stereo unspecified) [IBUPROFEN] | Not Active | Not Active
COc1ccc2c(c1)c(CC(=O)O)c(C)n2C(=O)c1ccc(Cl)cc1 [INDOMETHACIN] | Not Active | Not Active
CCc1c2c(nc3ccc(OC(=O)N4CCC(N5CCCCC5)CC4)cc13)-c1cc3c(c(=O)n1C2)COC(=O)[C@]3(O)CC [IRINOTECAN] | Not Active | Not Active
CC(C(=O)O)c1cccc(C(=O)c2ccccc2)c1 (stereo unspecified) [KETOPROFEN] | Not Active | Not Active
Nc1ccn([C@@H]2CS[C@H](CO)O2)c(=O)n1 [LAMIVUDINE] | Not Active | Not Active

test system: not listed separately; experiment: DRUGMATRIX: Sodium/nucleoside co-transporter radioligand binding (ligand: nitrobenzylthioinosine); assay type: cell membranes, Cavia porcellus, Dunkin-Hartley, Cerebral cortex, Membrane; conditions: Not Active = under 50% inhibition at 10 µM

Structure (SMILES) | IC50 | Ki
NC(=O)NO [HYDROXYUREA] | Not Active | Not Active
CC(C)Cc1ccc(C(C)C(=O)O)cc1 (stereo unspecified) [IBUPROFEN] | Not Active | Not Active
COc1ccc2c(c1)c(CC(=O)O)c(C)n2C(=O)c1ccc(Cl)cc1 [INDOMETHACIN] | Not Active | Not Active
CCc1c2c(nc3ccc(OC(=O)N4CCC(N5CCCCC5)CC4)cc13)-c1cc3c(c(=O)n1C2)COC(=O)[C@]3(O)CC [IRINOTECAN] | Not Active | Not Active
CC(C(=O)O)c1cccc(C(=O)c2ccccc2)c1 (stereo unspecified) [KETOPROFEN] | Not Active | Not Active
Nc1ccn([C@@H]2CS[C@H](CO)O2)c(=O)n1 [LAMIVUDINE] | Not Active | Not Active

target: T4, Type-2 angiotensin II receptor (Homo sapiens, UniProt P50052); experiment: not given; assay type: cell-based; conditions: cho-k1; also: in other assays of this panel Not Active means under 50% inhibition at 10 µM
T4 sequence (P50052 whole entry): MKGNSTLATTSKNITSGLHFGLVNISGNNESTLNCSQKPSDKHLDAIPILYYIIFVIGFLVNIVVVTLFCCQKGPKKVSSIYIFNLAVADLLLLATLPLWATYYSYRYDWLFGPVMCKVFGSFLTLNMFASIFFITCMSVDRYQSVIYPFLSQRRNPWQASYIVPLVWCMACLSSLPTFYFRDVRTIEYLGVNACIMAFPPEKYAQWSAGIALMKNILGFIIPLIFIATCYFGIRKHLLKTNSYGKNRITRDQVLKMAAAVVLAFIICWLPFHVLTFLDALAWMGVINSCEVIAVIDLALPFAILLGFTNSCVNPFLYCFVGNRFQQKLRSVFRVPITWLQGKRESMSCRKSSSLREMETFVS

Structure (SMILES) | IC50
NC(=O)NO [HYDROXYUREA] | Not Active
CC(C)Cc1ccc(C(C)C(=O)O)cc1 (stereo unspecified) [IBUPROFEN] | Not Active
COc1ccc2c(c1)c(CC(=O)O)c(C)n2C(=O)c1ccc(Cl)cc1 [INDOMETHACIN] | Not Active
CCc1c2c(nc3ccc(OC(=O)N4CCC(N5CCCCC5)CC4)cc13)-c1cc3c(c(=O)n1C2)COC(=O)[C@]3(O)CC [IRINOTECAN] | Not Active
CC(C(=O)O)c1cccc(C(=O)c2ccccc2)c1 (stereo unspecified) [KETOPROFEN] | Not Active
Nc1ccn([C@@H]2CS[C@H](CO)O2)c(=O)n1 [LAMIVUDINE] | Not Active

target: Aldo-keto reductase family 1 member B1 (Rattus norvegicus, UniProt P07943); experiment: biochemical; assay type: tissue-based, Lens of camera-type eye; conditions: not given

Structure (SMILES) | IC50
NC(=O)NO [HYDROXYUREA] | Not Active
CC(C)Cc1ccc(C(C)C(=O)O)cc1 (stereo unspecified) [IBUPROFEN] | Not Active
CCc1c2c(nc3ccc(OC(=O)N4CCC(N5CCCCC5)CC4)cc13)-c1cc3c(c(=O)n1C2)COC(=O)[C@]3(O)CC [IRINOTECAN] | Not Active
CC(C(=O)O)c1cccc(C(=O)c2ccccc2)c1 (stereo unspecified) [KETOPROFEN] | Not Active
Nc1ccn([C@@H]2CS[C@H](CO)O2)c(=O)n1 [LAMIVUDINE] | Not Active

same assay, conditions: read-out: IC50

Structure (SMILES) | IC50
COc1ccc2c(c1)c(CC(=O)O)c(C)n2C(=O)c1ccc(Cl)cc1 [INDOMETHACIN] | 3.63 µM
